# Source: US6365759B1, “Intermediate compounds for preparing macrocylcic analogs” (Eisai Co., Ltd., priority 1998, dated 2002)
# pIC50: −log10 of the molar value. Like-named read-outs stand apart in the source and are kept apart here.
# Experiments:
# [1] = tested on: DLD-1 human colon cancer cells; test: in vitro cell growth inhibition assay using DLD-1 cells; format: cell-based
# [2] = tested on: U937 human histiocytic lymphoma cells; test: U937 Mitotic Block Reversibility Assay; format: cell-based; conditions: for reversibility of induced mitotic blocks: blocks sustained 10 hour after drug washout
# [3] = Homo sapiens, DLD-1, read-out: DLD-1 mean IC50
# [4] = in vitro cell growth inhibition, DLD-1 human colon cancer cells, read-out: DLD-1 mean IC50
Structure (SMILES),pIC50 ([1]; read-out: DLD-1 mean IC50),"pIC50 [1, 3]",Complete Mitotic Block 0 hour [2],Complete Mitotic Block 10 hour [2],Reversibility Ratio [2],further results
C=C1CC2CCC34CC5OC6C(OC7CCC(CC(=O)CC8C(CC9OC(CCC1O2)CC(C)C9=C)OC(CC(O)CNC(=O)C(=O)c1c[nH]c2ccccc12)C8OC)OC7C6O3)C5O4 (centres unmarked) [Compound B1987],8.74,–,–,–,–,–
C=C1CC2CCC34CC5OC6C(OC7CCC(CC(=O)CC8C(CC9OC(CCC1O2)CC(C)C9=C)OC(CC(O)CN=[N+]=[N-])C8OC)OC7C6O3)C5O4 (centres unmarked) [Compound B1922],–,9.28,3 nM,30 nM,10.0,–
C=C1CC2CCC34CC5OC6C(OC7CCC(CC(=O)CC8C(CC9OC(CCC1O2)CC(C)C9=C)OC(CC(O)CN1CCC[C@@H]1CO)C8OC)OC7C6O3)C5O4 (some centres unmarked) [ER803852],8.52,–,3 nM,10 nM,3.3,–
C=C1C[C@@H]2CCC34CC5OC6C(OC7CCC(CC(=O)CC8C(CC9OC(CCC1O2)CC(C)C9=C)OC(CC(O)COS(C)(=O)=O)C8OC)OC7C6O3)C5O4 (some centres unmarked) [Compound B2294],–,9.10,–,–,–,–
C=C1CC2CCC34CC5OC6C(OC7CCC(CC(=O)CC8C(CC9OC(CCC1O2)CC(C)C9=C)OC(CC(O)CNCCO)C8OC)OC7C6O3)C5O4 (centres unmarked) [Compound B2417],7.90,–,10 nM,10 nM,1.0,–
C=C1CC2CCC34CC5OC6C(OC7CCC(CC(=O)C[C@H]8C(CC9OC(CCC1O2)CC(C)C9=C)OC(CC(O)CO)C8OC)OC7C6O3)C5O4 (some centres unmarked) [Compound B1793],–,–,–,–,14.7,"pIC50 [1, 4]: 9.03; Complete Mitotic Block 10 hour ([2]; after washout, 12 h pretreatment, U937 cells): 44 nM; Complete Mitotic Block 0 hour ([2]; before washout, 12 h pretreatment, U937 cells): 3 nM"
C=C1CC2CCC34CC5OC6C(OC7CCC(CC(=O)CC8C(CC9OC(CCC1O2)CC(C)C9=C)OC(C(O)CN)C8C)OC7C6O3)C5O4 (centres unmarked) [Compound B2136],–,8.28,3 nM,3 nM,1.0,–
C=C1CC2CCC34CC5OC6C(OC7CCC(CC(=O)CC8C(CC9OC(CCC1O2)CC(C)C9=C)OC(CC(O)CNC(=O)C(=O)c1ccccc1)C8OC)OC7C6O3)C5O4 (centres unmarked) [Compound B1930],9.06,–,–,–,–,–
C=C1CC2CCC34CC5OC6C(OC7CCC(CC(=O)CC8C(CC9OC(CCC1O2)CC(C)C9=C)OC(CC(O)CNCc1ccc(OC)cc1)C8OC)OC7C6O3)C5O4 (centres unmarked) [ER803845],8.82,–,3 nM,10 nM,3.3,–
C=C1CC2CCC34CC5OC6C(OC7CCC(CC(=O)CC8C(CC9OC(CCC1O2)CC(C)C9=C)OC(CC(O)CNC(=O)Cc1ccccc1)C8OC)OC7C6O3)C5O4 (centres unmarked) [Compound B1973],8.94,–,–,–,–,–
C=C1CC2CCC34CC5OC6C(OC7CCC(CC(=O)CC8C(CC9OC(CCC1O2)CC(C)C9=C)OC(CC(=O)CO)C8OC)OC7C6O3)C5O4 (centres unmarked) [Compound B1934],–,8.98,3 nM,30 nM,10.0,–
C=C1CC2CCC34CC5OC6C(OC7CCC(CC(=O)CC8C(CC9OC(CCC1O2)CC(C)C9=C)OC(CC(O)CNC(C)(C)C)C8OC)OC7C6O3)C5O4 (centres unmarked) [Compound B2339],8.37,–,3 nM,3 nM,1.0,–
C=C1CC2CCC34CC5OC6C(OC7CCC(CC(=O)CC8C(CC9OC(CCC1O2)CC(C)C9=C)OC(CC(O)CNC(CO)CO)C8OC)OC7C6O3)C5O4 (centres unmarked) [Compound B2490],7.45,–,100 nM,100 nM,1.0,–
C=C1CC2CCC34CC5OC6C(OC7CCC(CC(=O)CC8C(CC9OC(CCC1O2)CC(C)C9=C)OC(CC(O)CNC(=O)c1cc(OC)c(OC)c(OC)c1)C8OC)OC7C6O3)C5O4 (centres unmarked) [Compound B2004],9.20,–,–,–,–,–
C=C1CC2CCC34CC5OC6C(OC7CCC(CC(=O)CC8C(CC9OC(CCC1O2)CC(C)C9=C)OC(CC(O)CNC(=O)C(=O)c1cc(OC)c(OC)c(OC)c1)C8OC)OC7C6O3)C5O4 (centres unmarked) [Compound B2003],8.92,–,–,–,–,–
C=C1CC2CCC34CC5OC6C(OC7CCC(CC(=O)CC8C(CC9OC(CCC1O2)CC(C)C9=C)OC(CC(O)CN1CC[C@@H](O)C1)C8OC)OC7C6O3)C5O4 (some centres unmarked) [ER803836],8.71,–,3 nM,10 nM,3.3,–
C=C1CC2CCC34CC5OC6C(OC7CCC(CC(=O)CC8C(CC9OC(CCC1O2)CC(C)C9=C)OC(CC(O)Cn1ccnc1)C8OC)OC7C6O3)C5O4 (centres unmarked) [ER803870],8.90,–,3 nM,30 nM,10.0,–
C=CC(F)(F)C(O)CC1OC2CC3OC(CCC4OC(CCC56CC7OC8C(OC9CCC(CC(=O)CC2C1OC)OC9C8O5)C7O6)CC4=C)CC(C)C3=C (centres unmarked) [Compound B2035],–,9.12,–,–,–,–
C=C1CC2CCC34CC5OC6C(OC7CCC(CC(=O)CC8C(CC9OC(CCC1O2)CC(C)C9=C)OC(CC(O)CN1CCNCC1)C8OC)OC7C6O3)C5O4 (centres unmarked) [Compound B2418],8.44,–,10 nM,10 nM,1.0,–

Structure (SMILES),pIC50 ([1]; read-out: DLD-1 mean IC50),"pIC50 [1, 3]",Complete Mitotic Block 0 hour [2],Complete Mitotic Block 10 hour [2],Reversibility Ratio [2],further results
C=C1CC2CCC34CC5OC6C(OC7CCC(CC(=O)CC8C(CC9OC(CCC1O2)CC(C)C9=C)OC(CC(O)CN1CCCC1)C8OC)OC7C6O3)C5O4 (centres unmarked) [ER803835],7.81,–,10 nM,10 nM,1.0,–
C=C1CC2CCC34CC5OC6C(OC7CCC(CC(=O)CC8C(CC9OC(CCC1O2)CC(C)C9=C)OC(C(O)CO)C8C)OC7C6O3)C5O4 (centres unmarked) [Compound B2090],–,9.28,–,–,–,–
C=C1CC2CCC34CC5OC6C(OC7CCC(CC(=O)CC8C(CC9OC(CCC1O2)CC(C)C9=C)OC(CC(O)CCO)C8OC)OC7C6O3)C5O4 (centres unmarked) [Compound B2091],–,8.87,3 nM,30 nM,10.0,–
C=C1CC2CCC34CC5OC6C(OC7CCC(CC(=O)CC8C(CC9OC(CCC1O2)CC(C)C9=C)OC(CC(CO)OCc1ccc(F)cc1)C8OC)OC7C6O3)C5O4 (centres unmarked) [Compound B2015],–,8.56,–,–,–,–
C=C1CC2CCC34CC5OC6C(OC7CCC(CC(=O)CC8C(CC9OC(CCC1O2)CC(C)C9=C)OC(CC(O)CNC(=O)c1ccc(Cl)cc1)C8OC)OC7C6O3)C5O4 (centres unmarked) [Compound B1991],9.16,–,–,–,–,–
C=C1CC2CCC34CC5OC6C(OC7CCC(CC(=O)CC8C(CC9OC(CCC1O2)CC(C)C9=C)OC(CC(O)CO)C8OC)OC7C6O3)C5O4 (centres unmarked) [Compound B1794],–,–,–,–,–,"pIC50 [1, 4]: 7.91"
C=C1CC2CCC34CC5OC6C(OC7CCC(CC(=O)CC8C(CC9OC(CCC1O2)CC(C)C9=C)OC(CC(O)CNCC)C8OC)OC7C6O3)C5O4 (centres unmarked) [ER803869],8.38,–,3 nM,3 nM,1.0,–
C=C1CC2CCC34CC5OC6C(OC7CCC(CC(=O)CC8C(CC9OC(CCC1O2)CC(C)C9=C)OC(CC(O)CNCc1ccc(Cl)cc1)C8OC)OC7C6O3)C5O4 (centres unmarked) [ER803884],9.23,–,1 nM,10 nM,10.0,–
C=C1CC2CCC34CC5OC6C(OC7CCC(CC(=O)CC8C(CC9OC(CCC1O2)CC(C)C9=C)OC(CC(O)CNC(=O)Cc1cccnc1)C8OC)OC7C6O3)C5O4 (centres unmarked) [Compound B1940],8.27,–,–,–,–,–
"CC[C@]1(O)C[C@H]2CN(CCc3c([nH]c4ccccc34)[C@@](C(=O)OC)(c3cc4c(cc3OC)N(C=O)[C@H]3[C@@](O)(C(=O)OC)[C@H](OC(C)=O)[C@]5(CC)C=CCN6CC[C@]43[C@@H]65)C2)C1 [Vincristine, reference compound]",–,–,–,–,–,"Reversibility ratio ([2]; Table 2): 1; Drug concentration required for complete mitotic block, 0 hour (before washout) ([2]; Table 2, U937 cells): 10 nM; Drug concentration required for complete mitotic block, 10 hour (after washout) ([2]; Table 2, U937 cells): 10 nM; Interpretation ([2]; Table 2, reversibility of mitotic block): Irreversible; reversibility of induced mitotic blocks [2]: irreversible"
"CC[C@]1(O)C[C@@H]2CN(CCc3c([nH]c4ccccc34)[C@@](C(=O)OC)(c3cc4c(cc3OC)N(C)[C@H]3[C@@](O)(C(=O)OC)[C@H](OC(C)=O)[C@]5(CC)C=CCN6CC[C@]43[C@@H]65)C2)C1 [Vinblastine, reference compound]",–,–,–,–,–,"Reversibility ratio ([2]; Table 2): 60; Drug concentration required for complete mitotic block, 0 hour (before washout) ([2]; Table 2, U937 cells): 10 nM; Drug concentration required for complete mitotic block, 10 hour (after washout) ([2]; Table 2, U937 cells): 600 nM; reversibility of induced mitotic blocks [2]: highly reversible"
C=C1CC2CCC34CC5OC6C(OC7CCC(CC(=O)CC8C(CC9OC(CCC1O2)CC(C)C9=C)OC(CC(O)COC(=O)Nc1ccccc1)C8OC)OC7C6O3)C5O4 (centres unmarked) [Compound B1984],9.00,–,–,–,–,–
C=C1CC2CCC34CC5OC6C(OC7CCC(CC(=O)CC8C(CC9OC(CCC1O2)CC(C)C9=C)OC(CC(O)COC(=O)Nc1ccc(OC)cc1)C8OC)OC7C6O3)C5O4 (centres unmarked) [Compound B1992],9.07,–,–,–,–,–
C=C1CC2CCC34CC5OC6C(OC7CCC(CC(=O)CC8C(CC9OC(CCC1O2)CC(C)C9=C)OC(CC(O)COC(=O)Nc1ccc(Cl)cc1)C8OC)OC7C6O3)C5O4 (centres unmarked) [Compound B1990],8.89,–,–,–,–,–
C=C1CC2CCC34CC5OC6C(OC7CCC(CC(=O)CC8C(CC9OC(CCC1O2)CC(C)C9=C)OC(CC(=O)CNC(=O)C(=O)c1ccccc1)C8OC)OC7C6O3)C5O4 (centres unmarked) [Compound B1988],–,8.57,–,–,–,–
C=C1CC2CCC34CC5OC6C(OC7CCC(CC(=O)CC8C(CC9OC(CCC1O2)CC(C)C9=C)OC(CC(O)COCc1ccc(F)cc1)C8OC)OC7C6O3)C5O4 (centres unmarked) [Compound B2014],–,9.06,–,–,–,–
C=C1CC2CCC34CC5OC6C(OC7CCC(CC(=O)CC8C(CC9OC(CCC1O2)CC(C)C9=C)OC(CC(O)CC(O)CO)C8OC)OC7C6O3)C5O4 (centres unmarked) [Compound B2086],–,7.95,–,–,–,–
C=C1C[C@@H]2CCC34CC5OC6C(OC7CCC(CC(=O)CC8C(CC9OC(CCC1O2)CC(C)C9=C)OC(CCO)C8OC)OC7C6O3)C5O4 (some centres unmarked) [Compound B2037],–,9.18,–,–,–,–
